Measured values as given in ChEMBL document CHEMBL1156829 (Proc Natl Acad Sci U S A, 2008).
pEC50: −log10 of the molar value.

Assays:
[1] = NOVARTIS: Cytotoxicity against human hepatocellular carcinoma cell line (Huh7); type: toxicity, cell-based, Huh-7; conditions: Huh7 cells (hepatocellular carcinoma cell line)
Plasmodium falciparum [2] = assay: NOVARTIS: Inhibition of Plasmodium falciparum 3D7 (drug-susceptible) proliferation in erythrocyte-based infection assay; type: functional, organism-based; conditions: Plasmodium falciparum, 3D7
Plasmodium falciparum [3] = assay: NOVARTIS: Inhibition of Plasmodium falciparum W2 (drug-resistant) proliferation in erythrocyte-based infection assay; type: functional, organism-based; conditions: Plasmodium falciparum, W2; read-out: EC50

| Structure (SMILES) | CC50 [1] | pEC50 (Plasmodium falciparum [2]) | pEC50 (Plasmodium falciparum [3]) |
| --- | --- | --- | --- |
| COc1ccc2[nH]c3ccccc3c(=O)c2c1 | > 100000 nM | 5.36 | 5.50 |
| C[n+]1ccc(/C=C/c2ccc(Br)cc2)cc1 | > 10000 nM | 6.34 | 6.50 |
| CCN1CCN(Cc2ccc(N(CC)CC)cc2)CC1 | > 100000 nM | < 4.90 | 5.51 |
| c1ccc2cc3c(NCCN4CCOCC4)ccnc3cc2c1 | > 10000 nM | 6.51 | 6.50 |
| O=C(Nc1ccon1)c1cc(-c2cccnc2)nc2ccc(Br)cc12 | > 81000 nM | 5.71 | 5.60 |
| OC1(C(F)(F)F)CC(c2ccccc2)=NN1c1nncc(-c2ccccc2)n1 (stereo not given) | > 10000 nM | 6.63 | 6.50 |
| CCCCC(=O)N(C/C=C/c1ccccc1OC)CCN1CCN(C(=O)NC23CC4CC(CC(C4)C2)C3)CC1 | > 10000 nM | 5.84 | 6.50 |
| O=C(COc1ccc(Cl)cc1)NCCCCNc1ccnc2cc(Cl)ccc12 | > 9740 nM | 6.62 | 6.52 |
| CCCCc1ccc(C(=O)NCCCCNc2ccnc3cc(Cl)ccc23)cc1 | > 10000 nM | 6.66 | 6.51 |
| Cc1ccc(-c2nnc(Nc3ccc(F)cc3)c3ccccc23)cc1S(=O)(=O)NCC1CCCO1 (stereo not given) | > 100000 nM | 5.77 | 5.51 |
| CCn1c(SCC(=O)NCCc2ccccc2)nc2sc3c(c2c1=O)CCN(C)C3 | > 100000 nM | < 5.32 | 5.51 |
| Cc1ccc(C(=O)NCCCCNc2ccnc3cc(Cl)ccc23)cc1[N+](=O)[O-] | > 10000 nM | 6.65 | 6.51 |
| O=C(Nc1ccc(C2=NCCN2)cc1)c1cc(Cl)c(C(=O)Nc2ccc(C3=NCCN3)cc2)cc1Cl | > 10000 nM | 7.18 | 6.51 |
| CC(C)CNC(=O)c1cnc(NCCCn2ccnc2)nc1NC1CCCC1 | > 10000 nM | 6.17 | < 6.53 |
| N=c1c2ccccc2nnn1-c1cccc(C(F)(F)F)c1 | > 10000 nM | 6.87 | 6.51 |
| O=C(Nc1ccccc1O)c1ccc(Cl)cc1 | 36200 nM | 5.49 | 5.96 |
| Cc1cccc(NC(=S)NC2CC3CCCC(C2)N3CCc2ccccc2)c1 (stereo not given) | 30700 nM | 6.18 | 6.04 |
| Cc1ccc(C)c(S(=O)(=O)N=C2C=C(SCC(=O)O)C(=O)c3ccccc32)c1 | 17700 nM | 5.44 | 6.28 |
| COc1ccc2nc3ccccc3c(N)c2c1 | 5720 nM | 6.88 | 6.76 |
| COc1ccc(CCN2CC(CNC(=O)Cc3cccnc3)C(c3ccc(N(C)C)cc3)C2)cc1OC (stereo not given) | > 10000 nM | 6.00 | < 6.51 |
| CCc1ccc2[nH]c(=O)c(CN(Cc3ccc(OC)cc3)C(=S)NCCCN(CC)CC)cc2c1 | 18200 nM | 5.46 | 6.26 |
| COc1ccc(CN2CCc3nc(N4CCCCC4)sc3C2)cc1 | > 10000 nM | 6.53 | 6.52 |
| CCOC(=O)N1CCc2c(sc(NCc3ccc(C)o3)c2C(=O)Nc2ccc(OC)cc2OC)C1 | > 100000 nM | 5.04 | 5.52 |
| CC[n+]1c(C)cc2c([nH]c3ccccc32)c1C | > 100000 nM | 5.91 | 5.52 |
| COCCNCC(O)CON=C1c2ccccc2-c2ccccc21 (stereo not given) | 23300 nM | 5.32 | 6.15 |
| COCCN(C)C(=O)COC(c1cccs1)c1cccnc1Cl (stereo not given) | > 10000 nM | 6.39 | 6.52 |
| CCOC(=O)c1c(C)oc2c1c1c(c3ccccc32)OCN(C2CCCC2)C1 | > 100000 nM | 4.96 | 5.53 |
| Fc1ccc(Nc2nc(NCC3CCCO3)c3ccccc3n2)cc1 (stereo not given) | 9530 nM | 6.67 | 6.55 |

| Structure (SMILES) | CC50 [1] | pEC50 (Plasmodium falciparum [2]) | pEC50 (Plasmodium falciparum [3]) |
| --- | --- | --- | --- |
| CCCc1c(C)nc2ccc(C)cc2c1O | > 100000 nM | 5.49 | 5.53 |
| COc1ccc2cc(CNCCCO)c(N3CCN(c4ccc(F)cc4)CC3)nc2c1 | 20000 nM | 5.52 | 6.22 |
| O=C(CCn1c(=O)[nH]c2ccccc21)NCC1Cc2cccc(-c3ccncc3)c2O1 (stereo not given) | > 100000 nM | 5.49 | 5.53 |
| COCCn1c(SCC(=O)c2ccc(C)cc2C)nnc1-c1ccco1 | > 10000 nM | < 6.06 | 6.53 |
| Oc1ccc2ccccc2c1CNc1nc2ccccc2[nH]1 | 14300 nM | 6.19 | 6.35 |
| CCOC(=O)c1ccc(-c2c(-c3cc(CC)c(OC)cc3O)noc2C)o1 | 13800 nM | 6.03 | 6.36 |
| Cc1cccc(NC2=NC(N)=NC(C)(C)N2)c1 | > 10000 nM | 7.24 | 6.51 |
| O=C(Nc1ccc(C2=NCCN2)cc1)c1ccc(-c2ccc(C(=O)Nc3ccc(C4=NCCN4)cc3)cc2)cc1 | > 11700 nM | 5.88 | 6.44 |
| CC1(C)O[C@@H]2OC([C@@H](O)CNc3ccc([N+](=O)[O-])cc3[N+](=O)[O-])C(O)[C@@H]2O1 (stereo not given in full) | 12000 nM | 6.52 | 6.44 |
| COC1=CC(=O)c2c(ccc3c(OC)c(O)ccc23)C1=O | > 10000 nM | 6.70 | 6.52 |
| CCOC(=O)c1ccc2nc(C)cc(Nc3ccc(N4CCCCC4)cc3)c2c1 | 21200 nM | 6.54 | 6.20 |
| CCOc1ccc(Nc2nc(NCc3ccccc3)c3ccccc3n2)cc1 | 5670 nM | 7.05 | 6.77 |
| Cc1c(Cc2ccccc2)sc(N=Cc2ccc(Br)s2)c1C(N)=O | > 10000 nM | 6.35 | 6.50 |
| NC(=N[N+](=O)[O-])Nc1ccc(NC(=O)Nc2ccc(Cl)cc2)cc1 | > 9610 nM | < 6.05 | 6.53 |
| Cc1ccc(NC(=O)COc2ccc(Cl)cc2Cl)nc1 | > 100000 nM | < 5.25 | < 5.52 |
| CCN1CCN(Cc2cc(=O)oc3cc(-c4ccccc4)c(O)cc23)CC1 | 12500 nM | 6.55 | 6.41 |
| Cc1cc(Br)cc(Cl)c1OC(=O)c1ccno1 | > 100000 nM | < 4.90 | 5.52 |
| Cc1n(-c2ccccc2)c2c([n+]1C)C(=O)c1ccccc1C2=O | 427 nM | 8.18 | 7.89 |
| O=C(Nc1cc(Oc2ccc(F)cc2)cc([N+](=O)[O-])c1)c1nc2nc(-c3ccccc3)cc(C(F)(F)F)n2n1 | > 100000 nM | < 4.90 | 5.51 |
| CC[C@@H](C(=O)[C@@H](C)C(O)[C@H](C)CCc1ccc(C)c(O)c1C(=O)O)C1O[C@](CC)(C2CC[C@](O)(CC)[C@H](C)O2)C[C@@H]1C (stereo not given in full) | > 10000 nM | 6.27 | 6.50 |
| COc1ccc(OC)c(-c2ccc(O)c(CNCCCN(C)C)c2)c1 | 21400 nM | 5.90 | 6.17 |
| c1ccc([Si]2(c3ccccc3)N[Si](c3ccccc3)(c3ccccc3)N[Si](c3ccccc3)(c3ccccc3)N2)cc1 | > 10000 nM | 6.28 | 6.52 |
| Cn1c2ccncc2c2cc([N+](=O)[O-])ccc21 | 31400 nM | 6.08 | 6.03 |
| CC(C)N(CC(=O)Nc1cc(C(C)(C)C)nn1-c1ccc(Cl)c(Cl)c1)C(=O)c1ccc2ccccc2c1 | > 100000 nM | 5.88 | 5.52 |
| CCN1C(C)=C(C)S/C1=C\c1ccc2cc(C)ccc2[n+]1C | 5720 nM | 6.64 | 6.77 |
| Cc1onc(O)c1CC(N)C(=O)O (stereo not given) | > 10000 nM | 6.80 | 6.52 |
| CCc1ccc2[nH]c(=O)c(CN(CCN(CC)CC)C(=S)NCCCN(CC)CC)cc2c1 | 45600 nM | 5.62 | 5.86 |
